Assay results from patent US7786176B2, “Vaginal treatment composition containing xylitol” (Kimberly-Clark Worldwide, Inc., priority 2005, dated 2010).
Entries after “also recorded” stand apart in the source; their conditions may differ.

Legend:
Type in all cases: cell-based
Gardnerella vaginalis [1] = assay: Gardnerella vaginalis optical density with sugars and sugar derivatives (Example 15); conditions: 24 hours; 1.0% (wt/vol), FIG. 12
Description: A growth medium for Gardnerella vaginalis was prepared according to the manufacturer's instructions, and the pH of this medium was adjusted to pH 6.0 using 1 N HCl. D-ribose (99%, Calbiochem), D-arabinose (98%, Alfa Aesar), D-xylose (Aldrich), D-lyxose (99%, Avovado), D-arabitol (97%, Alfa Aesar), adonitol (99%, Alfa Aesar), xylitol (99%, Alfa Aesar), xylitol (98%, Danisco), and xylitol (98%, Aldrich) were then dissolved into the growth medium at a concentration of 1.0% (wt/vol). 0.9 milliliters of the culture medium was also added into a different culture tube as a control. Thereafter, 0.1 milliliter of Gardnerella vaginalis culture suspension (concentration of 1×10^6/milliliter) was added to each of the culture tubes, and then incubated overnight at 37° C., and the optical density was then measured after 24 hours at a wavelength of 595 nanometers. This was accomplished by pipetting 100 microliters of the control or sample solutions into 96-well microplates, and then using a ThermoMax Microplate Reader from Molecular Devices of Sunnyvale, Calif. to obtain the optical density readings. The results are depicted in FIG. 12.

Gardnerella vaginalis [2] = assay: Gardnerella vaginalis plate count after treatment with gel compositions (Example 6)
Description: Gardnerella vaginalis was obtained from the American Type Culture Collection (ATCC #14018). The culture medium was Casman's medium base (BD 229010) with 5% rabbit blood (ATCC medium 70).
Initially, eight (8) solutions were formed as set forth below in Table 4.
Samples 1-2 were prepared by dissolving the KELCOGEL® (0.07 grams) and/or xylitol (0.44 grams) into 10 milliliters of water heated to between 70° C. to 80° C. Samples 3-4 and 6 were formed by first autoclaving a gallic acid stock solution (0.75 grams of gallic acid/20 mL water), autoclaving, and then adding 200 microliters of sterile gallic acid (0.0075 grams) to each sterile solution. Sample 5 was formed by dissolving 0.44 grams of xylitol in deionized water, followed by autoclaving. Sample 7 was formed by dissolving 0.44 grams of xylitol in sterilized growth medium for Gardnerella vaginalis and then filtering. The amount of xylitol was selected to yield isotonic solutions. […]
Upon formation, 1 milliliter of each control or sample solution was then added into a culture tube, followed by the addition of 0.8 milliliters of growth medium for Gardnerella vaginalis. […] After 24 and 48 hours, the optical density was measured for each sample at wavelengths of 450 and 595 nanometers. […] The number of colonies on each plate was counted using ProtoCol® software from Synbiosis of Frederick, Md. […]

Gardnerella vaginalis [3] = assay: Zone of inhibition on agar plates, Gardnerella vaginalis (Examples 8, 11)
Description: (§1) A microorganism culture of 10^5 cfu (colony forming units)/ml in a 1× phosphate buffered saline (PBS) solution (diluted from 10×PBS LIQUID CONCENTRATE from VWR Cat. No. EM-6507] was used. One milliliter of the solution was plated on proper agar plates, depending on which microorganism was being tested. The agar plates were incubated at 35° C. for 4 hours. Three 4-millimeter diameter wells were then punched in each agar plate. A test sample of 100 microliters of 5% xylitol in sterilized 2-N-morpholino ethane sulfonic buffer (0.1 M 2-[morpholino]-ethanesulfonic acid, 0.9% NaCl, pH 4.7, prepared from BupH™ MES Buffer Saline Pack from Cat. No. 28390, Pierce Biotechnology, Inc., Rockford, Ill.) was added to one well of each plate. Into each of the other two wells were added MES buffer and 1% benzyl quats (diluted from BARDAC.® 205M, from Lonza Inc., Fair Lawn, N.J.) as negative and positive controls, respectively. The plates were incubated overnight at 35° C.
(§2) The following day, the “zone of inhibition” for each sample was then measured for Gardnerella vaginalis and Lactobacillus acidophilus activity. The “zone of inhibition” is a circular zone formed around the agar plate in which the growth of the microorganism is inhibited. […] However, when growth is inhibited, a clear zone is observed. The diameter of this clear zone may thus be used as an indicator of antimicrobial effectiveness.
(§3) Sorbitol, glucose, and xylitol were tested as described in Example 8.

[4] = test system: Lactobacillus acidophilus; assay: Zone of inhibition on agar plates, Lactobacillus acidophilus (Examples 8, 11)
Description: as §1, §2, §3

Gardnerella vaginalis [5] = assay: Optical density growth test, Gardnerella vaginalis (Example 9); conditions: 2, 4, 6 and 24 hours, FIG. 5
Description: (§4) Test compounds were dissolved in culture media to form a suspension. Control or xylitol solutions (0.9 milliliters) were filtered and added into culture tubes, and to this was added 0.1 milliliter of either the Gardnerella vaginalis or Lactobacillus acidophilus suspension at a concentration of around 10^6 cfu/milliliter. The culture tubes were then incubated overnight at 37° C., whereafter the optical density was measured at 2, 4, 6 and 24 hours by pipetting 100 microliters of the control or sample solutions into 96-well microplates, and then using a ThermoMax Microplate Reader (Molecular Devices of Sunnyvale, Calif.) to obtain the optical density readings at 590 or 600 nm wavelengths. […] The inhibition effect remained evident throughout the 24-hour experimental period.

[6] = test system: Lactobacillus acidophilus; assay: Optical density growth test, Lactobacillus acidophilus (Example 9); conditions: 2, 4, 6 and 24 hours, FIG. 7
Description: as §4

Gardnerella vaginalis [7] = assay: Plate count after 6 hours treatment, Gardnerella vaginalis (Example 10); conditions: all five concentrations, 1-5%
Description: (§5) Test compounds were dissolved in culture media to form a suspension. Control or xylitol solutions (0.9 milliliters) were filtered and added into culture tubes. To these solutions, 0.1 milliliter of the Gardnerella vaginalis or Lactobacillus acidophilus suspension was then added at a concentration of around 10^6 cfu/milliliter. The culture tubes were incubated at 37° C. for 6 hours. The samples in the culture tubes were then diluted at 1, 10 and 100 times, and 100 microliters of each dilution was plated onto agar plates with WASP (Whitely Automatic Spiral Plate) spiral plating equipment from Don Whitely Scientific Limited, USA. The plates were incubated overnight at 35° C., and the numbers of colonies were counted on each plate by either ProtoCol® from Synbiosis, Frederick, Md., USA Whitely Scientific Limited, USA or by hand count. The results are shown below in Tables 7-8 and in FIG. 6.

[8] = test system: Lactobacillus acidophilus; assay: Plate count after 6 hours treatment, Lactobacillus acidophilus (Example 10); conditions: 1% and 5% xylitol
Description: as §5

Trichomonas vaginalis = assay: Viable Trichomonas vaginalis cell count with xylitol (Example 12)
Description: Trichomonas vaginalis was obtained from the American Type Culture Collection (ATCC #30001). The culture medium was LYI-S-2 medium (ATCC medium 2154).
A sterile LYI-S-2 medium was prepared according to the manufacturer's instructions, and the pH of this medium was adjusted to pH 6.0 using 1 N HCl. Xylitol was then dissolved into the LYI-S-2 medium at concentrations of 0.5%, 3.0%, and 5.0% (wt/vol). 0.9 milliliters of xylitol and culture medium (as control) were also added into different culture tubes. Thereafter, 0.1 milliliter of Trichomonas vaginalis culture suspension (concentration of 1×10^6/milliliter) was added to each of the culture tubes, and then incubated at 35° C. on a 15 degree horizontal slant. The viable Trichomonas vaginalis cells in each tube were counted under a microscope after 24 and 48 hours. The above procedure was repeated four times for each concentration of xylitol and the control.

Candida albicans = Candida albicans viable cell count with xylitol (Example 14); conditions: 24 hours; 1%, 2%, 3%, 4%, and 5.0% (wt/vol), FIG. 11
Description: A YM culture medium was prepared according to the manufacturer's instructions, and the pH of this medium was adjusted to pH 6.0 using 1 N HCl. Xylitol was then dissolved into the YM medium at concentrations of 1%, 2%, 3%, 4%, and 5.0% (wt/vol). 0.9 milliliters of the culture medium were also added into a different culture tube as a control. Thereafter, 0.1 milliliter of Candida albicans culture suspension (concentration of 1×10^6/milliliter) was added to each of the culture tubes, and then incubated at 37° C. The viable Candida albicans cells in each tube were counted under a microscope after 24 hours. The above procedure was repeated four times for each concentration and the control.

[9] = 5% in MES buffer pH 4.7, 100 microliters per well
[10] = zone of inhibition testing, concentrations as in Tables 6 and 9

Structure (SMILES) | Gardnerella vaginalis cell count versus control (optical density 595 nanometers) (Gardnerella vaginalis [1]) | Average Plate Count (Gardnerella vaginalis [2]; 24-hr samples, 4.4 wt/vol % xylitol in growth medium) | Effect on Gardnerella vaginalis growth (Gardnerella vaginalis [2]; Example 6) | Zone of inhibition, Gardnerella vaginalis (Gardnerella vaginalis [3]; [9]) [mm] | Zone of inhibition, Gardnerella vaginalis (Gardnerella vaginalis [3]; 10%) [mm] | Effect on Gardnerella vaginalis (Gardnerella vaginalis [3]; [10]) | Zone of inhibition, Lactobacillus acidophilus [4, 9] [mm] | Zone of inhibition, Lactobacillus acidophilus ([4]; 10%) [mm] | Effect on Lactobacillus acidophilus [4, 10] | Inhibition of Gardnerella vaginalis growth (optical density) (Gardnerella vaginalis [5]) | Inhibition of Lactobacillus acidophilus growth (optical density) [6] | Inhibition of Gardnerella vaginalis growth compared to control (Gardnerella vaginalis [7]) | Inhibition of Lactobacillus acidophilus growth [8] | Trichomonas vaginalis cell count versus control (Trichomonas vaginalis; 24 hours, 0.5%, 3.0%, and 5.0% (wt/vol), FIG. 8) | Trichomonas vaginalis cell count versus control (Trichomonas vaginalis; 48 hours, FIG. 9) | Live Trichomonas vaginalis cells (Trichomonas vaginalis; 48 hours, 3% and 5% xylitol) | Candida albicans cell count versus control (Candida albicans)
O=C[C@H](O)[C@H](O)[C@H](O)CO [D-ribose] | significantly reduced | – | – | – | – | – | – | – | – | – | – | – | – | – | – | – | –
OC[C@@H](O)[C@H](O)[C@@H](O)CO [xylitol] | significantly reduced | 2.40 × 10^4 | significant inhibition | 4 | 4 | inhibited; also recorded: inhibitory effect | 0 | 0 | did not affect the growth | significant inhibition | did not exhibit any significant inhibition | significant inhibition | did not exhibit any significant inhibition | significantly reduced | even more significant inhibitory effect | No live Trichomonas vaginalis cells were observed | significantly reduced
